Measured values taken from patent US20250197799A1, “CELLS DERIVED FROM POLYPEDILUM VANDERPLANKI AND ODOR SENSOR EQUIPPED THEREWITH” (University of Maryland, College Park, priority 2022, published 2025).

Assays:
[1] = molecular target: T1, Orco-Or47a (Drosophila melanogaster, UniProt P81921+Q9VNB5); assay: Functional confirmation of exogenous membrane proteins in Orco-Or47a stable expression cell line; assay type: cell-based; design: remnant residues; expressed in transfected cells; settings: VUAA1 final 100 μM; pentyl acetate final 1 mM; DMSO negative control
T1 sequence (Q9VNB5 1-486): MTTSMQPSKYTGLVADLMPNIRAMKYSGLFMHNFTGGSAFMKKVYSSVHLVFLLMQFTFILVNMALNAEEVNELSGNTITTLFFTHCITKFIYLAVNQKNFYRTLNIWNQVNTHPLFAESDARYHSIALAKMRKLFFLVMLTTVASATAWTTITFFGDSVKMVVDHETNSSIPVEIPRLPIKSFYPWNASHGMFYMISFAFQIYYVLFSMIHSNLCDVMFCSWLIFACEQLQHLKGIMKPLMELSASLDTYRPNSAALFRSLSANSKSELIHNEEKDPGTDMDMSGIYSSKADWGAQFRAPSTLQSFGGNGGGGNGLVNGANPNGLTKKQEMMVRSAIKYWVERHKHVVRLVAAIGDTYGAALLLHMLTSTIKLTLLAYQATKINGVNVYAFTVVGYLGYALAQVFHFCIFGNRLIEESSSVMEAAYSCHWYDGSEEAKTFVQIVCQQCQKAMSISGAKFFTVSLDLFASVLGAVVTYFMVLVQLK
T1 sequence (P81921 1-385): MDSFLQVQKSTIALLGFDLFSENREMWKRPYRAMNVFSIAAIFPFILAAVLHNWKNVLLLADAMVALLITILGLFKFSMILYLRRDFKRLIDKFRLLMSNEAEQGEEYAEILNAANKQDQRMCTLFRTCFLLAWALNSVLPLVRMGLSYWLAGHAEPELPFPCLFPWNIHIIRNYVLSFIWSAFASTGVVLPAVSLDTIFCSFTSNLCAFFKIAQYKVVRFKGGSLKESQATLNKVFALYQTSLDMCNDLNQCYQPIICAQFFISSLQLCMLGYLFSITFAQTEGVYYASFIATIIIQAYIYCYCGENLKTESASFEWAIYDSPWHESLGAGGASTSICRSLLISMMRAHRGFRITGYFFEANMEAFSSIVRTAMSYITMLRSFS
Description: 3.2 The functionality of GCaMP6f. The functionality of GCaMP6f in the resulting cell lines was evaluated using Ionomycin (Ionomycin; Fujifilm Wako Pure Chemical) to increase the intracellular concentration of calcium ions to provide functional confirmation of exogenous proteins in the GCaMP6f stable-expressing cell line. Ionomycin was dissolved in dimethyl sulfoxide (DMSO; Fujifilm Wako Pure Chemical Industries, Ltd.), adjusted to a final DMSO concentration of 1% and an ionomycin final concentration of 1 μM in IP1-41 medium, and added to the cell solution. As a negative control, DMSO was adjusted to a final concentration of 1% in IP 1-41 medium and added to the cell solution. Bright-field images and fluorescence images (ex: 470/40 nm; em: 525/50 nm) of the cells before and after solution addition were taken (all-in-one fluorescence microscope BZ-X710, Keyence). […] For statistical analysis of fluorescence intensity, one-way ANOVA was performed using Prism8 (GraphPad), followed by Tukey's multiple comparison test as a post-hoc test,
3.3 Functional confirmation of exogenous membrane proteins in cell lines with stable expression of Orco-Or47a. The amount of fluorescence expression was confirmed by the same operation as in 3.2 above. […] Fluorescence images were taken at an excitation wavelength/emission wavelength of 488 nm/525 nm. […]

[2] = molecular target: T2, Orco (Drosophila melanogaster, UniProt Q9VNB5); assay: Response of BAM-immobilized Orco stable expression cell line; assay type: cell-based; settings: Pv11-GCaMP6f-Orco stable expression cell line immobilized with BAM
T2 construct: remnant residues; expressed in transfected cells; host or cells: Pv11 cells (Polypedilum vanderplanki), knock-in at the Pv.00443 locus downstream of the 121 promoter, single-cell sorting
T2 sequence (Q9VNB5 1-486): T1 sequence (Q9VNB5 1-486)
Source text: 8.1 Pv11 cell immobilization. A cell membrane modifier (BAM: Biocompatible Anchor for cell Membrane) was used to fix the stable expression cell line obtained above. BAM consists of a hydrophilic PEG chain, an NHS group, and a hydrophobic oleyl group; by bringing BAM into contact with a collagen-coated dish, the NHS group binds to collagen, and the oleyl group interacts with the cell membrane through hydrophobic interactions, allowing cells to adhere. BAM (SUNBRIGHT OE-040CS, Yuka Sangyo Co., Ltd.) was dissolved in DMSO (Fujifilm Wako Pure Chemical Industries) to a concentration of 10 mM. The 10 mM BAM solution was adjusted to DPBS(-) (Thermo Fisher) to a final concentration of 100 μM, 100 μl was dropped onto a collagen 1-coated 48-well microplate (IWAKI) and incubated at 37° C. for 1 hour. The BAM solution was removed, washed once with DPBS(-) (Thermo Fisher) and five times with MilliQ, and allowed to stand still to evaporate water droplets. The Pv11 cell suspension was centrifuged at 700 g for 3 minutes, the supernatant was removed, the cell pellet was suspended in DPBS(-) (Thermo Fisher) and dropped onto a BAM-coated dish. […]
8.2 Functional confirmation of exogenous membrane proteins in fixed cells. […] Each substance was reacted with each cell in the same manner as in 3.2 above, and the fluorescence intensity was measured. […]

Structure (SMILES)	fluorescence intensity [1]	response (fluorescence intensity) of immobilized cells [2]
CCc1ccc(NC(=O)CSc2nnc(-c3cccnc3)n2CC)cc1 [VUAA1, N-(4-ethylphenyl)-2-{[4-ethyl-5-(pyridin-3-yl)-4H-1,2,4-triazol-3-yl]sulfanyl}acetamide]	increase in fluorescence intensity was observed	did respond
CCCCCOC(C)=O [pentyl acetate]	increase in fluorescence intensity was also observed	did not respond
